Laboratory results taken from patent US12234223B2, “Phthalazinone compound, and preparation method therefor and medical use thereof” (SHANGHAI JEMINCARE PHARMACEUTICALS CO., LTD, priority 2020, dated 2025).

Target: T1, Androgen receptor (Homo sapiens, UniProt P10275)
T1 construct: Dmax: a maximum degradation degree of AR in VCaP cells; endogenous in cells; host or cells: VCaP cells
T1 sequence (P10275 1-920): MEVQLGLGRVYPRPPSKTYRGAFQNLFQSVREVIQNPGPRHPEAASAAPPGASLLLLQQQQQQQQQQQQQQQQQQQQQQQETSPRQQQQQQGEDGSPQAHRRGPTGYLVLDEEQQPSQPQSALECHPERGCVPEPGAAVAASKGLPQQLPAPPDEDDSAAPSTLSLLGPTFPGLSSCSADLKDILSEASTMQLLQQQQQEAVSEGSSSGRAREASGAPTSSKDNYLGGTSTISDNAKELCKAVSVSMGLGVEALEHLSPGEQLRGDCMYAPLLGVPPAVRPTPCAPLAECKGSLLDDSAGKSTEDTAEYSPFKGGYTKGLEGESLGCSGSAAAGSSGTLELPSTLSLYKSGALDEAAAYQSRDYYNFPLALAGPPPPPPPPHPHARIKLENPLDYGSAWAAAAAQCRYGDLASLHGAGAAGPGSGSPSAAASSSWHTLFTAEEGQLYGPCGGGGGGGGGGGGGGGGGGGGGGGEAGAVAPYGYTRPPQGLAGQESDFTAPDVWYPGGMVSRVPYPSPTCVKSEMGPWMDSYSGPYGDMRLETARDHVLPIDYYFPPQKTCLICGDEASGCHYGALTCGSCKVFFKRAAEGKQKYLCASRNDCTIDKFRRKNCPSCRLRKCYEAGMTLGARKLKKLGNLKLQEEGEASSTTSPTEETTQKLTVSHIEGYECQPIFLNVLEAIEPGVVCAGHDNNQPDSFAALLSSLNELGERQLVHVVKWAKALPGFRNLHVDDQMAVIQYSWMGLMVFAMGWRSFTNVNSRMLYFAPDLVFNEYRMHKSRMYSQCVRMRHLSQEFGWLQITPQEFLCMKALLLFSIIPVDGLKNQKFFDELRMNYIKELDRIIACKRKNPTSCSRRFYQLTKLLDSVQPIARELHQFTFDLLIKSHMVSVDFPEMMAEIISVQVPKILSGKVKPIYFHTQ
Test: Androgen receptor In-Cell-Western assay (AR degradation in VCaP cells)
Format: cell-based
Conditions: 24 hours treatment; for DC50: concentration for half the maximum degradation degree of AR in VCaP cells; for Dmax: maximum degradation degree of AR in VCaP cells
Experimental: This assay evaluated compound performance in VCap cells. An intracellular androgen receptor was assayed by In-Cell-Western according to the assay procedure described below.
In a 96-well cell culture plate (Corning 3599) pretreated by poly-D-Lysin, Vcap cells were seeded to a Vcap cell assay medium [phenol red containing DMEM (Gibco Cat. No.: 11995065); fetal bovine serum FBS (Gibco Cat. No.: 10099141C)] at a volume of 100 μL/well and a cell density of 50,000 cells/well. Cells were cultured for at least two days. • 1. First, cells were treated with a compound. The compound was subjected to a gradient dilution by using DMSO and a cell culture medium, so that DMSO contained in the cell culture plate was diluted to 0.5%: a polypropylene plate was used according to the following protocol: • (1) (i) A 200× stock solution plate was prepared in DMSO; (ii) a 10 mM stock solution was diluted at 1:4 (10 μL stock solution+40 μL DMSO=2000 uM) with DMSO to enter row 2; (iii) a 1:4 (10 μL protac+40 μL DMSO) gradient dilution was performed from row 2 to row 9, row 1 was reserved for a 2000 uM reference compound and row 10 was reserved for DMSO. (iv) There were 8 concentrations (the final concentrations on the 200× plate was 2000 uM, 400 uM, 80 uM, etc.) in total. (2) (i) A 3× stock solution was prepared in the medium; (ii) 3 μL of the 200× stock solution was transferred to 197 μL of the medium (by a 12-channel pipette, from row 1 to row 10), i.e. a 3× stock solution plate. (iii) Uniform mixing was performed for the stock solution plate. (3) (i) The medium of Vcap cells was replaced with a fresh medium, with the medium volume of 100 μL. (ii) The uniformly-mixed 3× stock solution was transferred to the cell culture plate (by the 12-channel pipette, 50 μL of the stock solution was transferred from row 1 to row 10). (iii) The cells were cultured for 24 hours. • 2. The expression level of the intracellular androgen receptor after compound treatment was detected, and assay was performed according to the following method. • (1) (i) An equal volume of 8% paraformaldehyde was added to the cell culture plate for cell fixation. A fixative solution in the cell plate was discarded, and the cell plate was washed three times with PBS. (ii) A Triton solution was prepared (the stock solution was diluted at 1:1000). The solution in the cell plate was discarded, and a volume of 200 μL of a Triton diluent was added to each well. (iii) A 2× blocking solution was prepared (a 10× blocking stock solution was diluted at 1:4). The solution in the cell plate was discarded, and a volume of 100 μL of the 2× blocking solution was added to each well. (iv) A primary antibody solution (Androgen receptor Rabbit mAb, Cell Signaling Technology Cat. No.: 5153; 1:1000 dilution) was prepared. The solution in the cell plate was discarded, a volume of 100 μL of a primary antibody diluent was added to each well, and incubation was performed at 4 degrees overnight. (v) The primary antibody solution was discarded, and the cell plate was washed with 1× Wash buffer (Wash buffer in the present application means a washing buffer solution). (vi) A secondary antibody solution (Goat anti Rabbit IgG (H+L) Secondary Antibody, HRP, Thermo Cat. No.: 31460; 1:5000 dilution) was prepared, and a volume of 100 μL of a secondary antibody diluent was added to each well for incubation. (vii) The secondary antibody solution in the cell plate was discarded, and the cell plate was washed with 1× Wash buffer. (viii) A TMB chromogenic solution (BD Cat. No.: 550534) was prepared, and a volume of 100 μL of the chromogenic solution was added to each well. (ix) A volume of 50 μL of a stop solution (BD Cat. No.: 550534) was added to each well. (x) Absorption values at OD 450 nm and 570 nm were read by EnVision. (2) (i) Normalized analysis was performed for the number of cells in each well. The solution in the cell plate was discarded, and the cell plate was washed three times with wash buffer. […]

DC50	Dmax	SMILES
10 nM	97%	CC1(C)[C@H](NC(=O)c2ccc(N3CCC(CN4CCN(c5ccc6c(=O)n(C7CCC(=O)NC7=O)ncc6c5)CC4)CC3)cc2)C(C)(C)[C@H]1Oc1ccc(C#N)c(Cl)c1 (stereo partly drawn) [Compound 1]
2.7 nM	126%	CC1(C)[C@H](NC(=O)c2ccc(N3CCC(CN4CCN(c5ccc6c(=O)n([C@H]7CCC(=O)NC7=O)ncc6c5)CC4)CC3)cc2)C(C)(C)[C@H]1Oc1ccc(C#N)c(Cl)c1 [Compound 28A]
8.9 nM	169%	CC1(C)[C@H](NC(=O)c2ccc(N3CCC(CN4CCN(c5ccc6c(=O)n(C7CCC(=O)NC7=O)nc(F)c6c5)CC4)CC3)cc2)C(C)(C)[C@H]1Oc1ccc(C#N)c(Cl)c1 (stereo partly drawn) [Compound 29]
